DC50 and Dmax data for six compounds are collected here from US20260317324A1, “BIFUNCTIONAL COMPOUNDS FOR DEGRADING BRAF VIA UBIQUITIN PROTEOSOME PATHWAY” (Nurix Therapeutics, Inc., priority 2023, published 2026).

Molecules are shown by their SMILES.

What all share (assay type): cell-based
In one assay the target is T1, BRAF V600E (Homo sapiens, UniProt P15056, V600E).
T1 construct: endogenous C-terminal HiBiT fusion tag on BRAF V600E allele; endogenous in cells; host or cells: A375 clone 1F10 (CRISPR-Cas9 knock-in of the HiBiT tag; parental A375 from ATCC)
The assay is described as follows: BRAF HiBiT degradation assay, C-terminal HiBiT-tagged BRAF V600E A375 cells (clone 1F10), Nano-Glo HiBiT Lytic assay. To be noted: for Dmax: A-375. In short, it runs like this: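 A375 cells with CRISPR knock-in C-terminal HiBiT on endogenous BRAF V600E (clone 1F10) were seeded and cultured 24 h at 37 °C, then dosed with an 11-point half-log series (1 μM to 0.01 nM, duplicate, 0.2% DMSO). Lytic HiBiT luminescence gave % protein remaining; DC50 was the fitted concentration at 50%.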

The next assay has as its target T2, BRAF G466V (Homo sapiens, UniProt P15056, G466V).
T2 construct: Horizon Discovery (HCT-116 BRAF−/− cells); host or cells: HCT-116 BRAF−/− cells, clone 8, lentiviral transduction
The assay can be described thus: BRAF HiBiT degradation assay, C-terminal HiBiT-tagged BRAF G466V overexpressed in HCT-116 BRAF−/− cells (clone 8), Nano-Glo HiBiT Lytic assay. From the text: (§1) An A375 cell line expressing a homozygous V600E mutation was purchased from ATCC (Manassas, VA, USA). An A375 clone 1F10 cell line with an endogenous C-terminal HiBiT fusion tag on BRAF V600E allele was generated internally using CRISPR-Cas9 technology and cultured in DMEM, high glucose supplemented with 10% FBS and 1× GlutaMAX. A HCT-116 BRAF−/− cell line overexpressing the C-terminal HiBiT-tagged G466V, G469A, and D594G mutants were generated by lentiviral transduction, externally at Biosettia Inc (San Diego, CA, USA). The stably transfected cells were cultured in RPMI media supplemented with 10% FBS, 1× GlutaMAX, and 0.25 μg/ml puromycin. DMEM medium, RPMI 1640 medium, GlutaMAX, fetal bovine serum (FBS), and puromycin were purchased from Gibco (Grand Island, NY, USA). HCT-116 BRAF−/− cells were purchased from Horizon Discovery (Waterbeach, UK).
(§2) The C-terminal HiBiT tagged mutant BRAF G466V, G469A, and D594G overexpressed in HCT-116 BRAF−/− cells (monoclonal cell line, cell clones 8, 34, and 63, respectively) were seeded at the density of 3,000 cells/well in 30 μL media (RPMI supplemented with 10% FBS and 1× GlutaMAX) in white opaque 384-well plates (Corning #3570) from column 1 to column 23. Wildtype HCT-116 BRAF cells were seeded in column 24 at the same cell density in 30 μL media. Cells were incubated at 37° C. with 5% CO2 for 24 h.
(§3) Intermediate compound dilution series (5-point, ranging from 5 mM to 0.5 μM, 10-fold dilutions in DMSO) were prepared in a source plate (Beckman Coulter cat. no. 001-16128). Final compound dilution series (11-point, ranging from 1 μM to 0.01 nM, half-log dilutions in DMSO) were stamped into the assay plate (Corning #3570, column 1-11 and 12-22) using the Echo Acoustic Liquid Handler (Beckman Coulter). Each compound was plated in duplicate, and the total volume of compound DMSO solution was 60 nL/well (0.2% final DMSO concentration). DMSO was included in wells A23-L23 and A24-L24. The DMSO-treated HiBiT-tagged samples served as Negative Control (NC) and the DMSO-treated wildtype samples served as Background Control (BC) for the HiBiT assay.
(§4) HiBiT signal was measured by a Nano-Glo HiBiT Lytic assay (Promega cat. no. N3050). HiBiT lytic detection reagent (Nano-Glo HiBiT Lytic Buffer with 1:50 Nano-Glo HiBiT Lytic Substrate and 1:100 LgBiT Protein, 40 μL) was added using Bravo. The mixture was incubated at room temperature, in the dark, and with gentle shaking for 10 min. Luminesce units (LU) were read on an EnVision plate reader 2105 (Perkin Elmer).
(§5) Percent protein remaining and viability remaining per sample were calculated as follows: […]
(§6) % Protein remaining values were plotted as a function of compound concentration. XC50 (DC50) values were determined by fitting curves using the following equation:
(§7) For the HiBiT degradation assay, the key parameters reported include: • The dose of compound that produces 50% degradation (DC50 at 50%): • DC50 at 50%: the Fitted X value (Conc.) at Y=50 (response) • Observed Dmax (Obs. Dmax) is the percentage protein degraded at maximal compound effect relative to DMSO-treated control: […]

The next assay concerns the target T3, BRAF G469A (Homo sapiens, UniProt P15056, G469A).
T3 construct: Horizon Discovery (HCT-116 BRAF−/− cells); host or cells: HCT-116 BRAF−/− cells, clone 34, lentiviral transduction
The assay is described as follows: BRAF HiBiT degradation assay, C-terminal HiBiT-tagged BRAF G469A overexpressed in HCT-116 BRAF−/− cells (clone 34), Nano-Glo HiBiT Lytic assay.
Excerpt: as §1, §2, §3, §4, §5, §6, §7

The target of the next assay is T4, BRAF D594G (Homo sapiens, UniProt P15056, D594G).
T4 construct: Horizon Discovery (HCT-116 BRAF−/− cells); host or cells: HCT-116 BRAF−/− cells, clone 63, lentiviral transduction
The assay can be described thus: BRAF HiBiT degradation assay, C-terminal HiBiT-tagged BRAF D594G overexpressed in HCT-116 BRAF−/− cells (clone 63), Nano-Glo HiBiT Lytic assay.
Excerpt: as §1, §2, §3, §4, §5, §6, §7

[1] abbreviates: A375 (BRAF V600E), DC50 at 50%: fitted conc. at Y=50.
[2] abbreviates: A375 (BRAF V600E), percentage protein degraded at maximal compound effect relative to DMSO.
Where [3] appears, read: BRAF G466V, DC50 at 50%: fitted conc. at Y=50.
Where [4] appears, read: HCT-116, BRAF G466V, percentage protein degraded at maximal compound effect relative to DMSO.
Where [5] appears, read: Class 2, BRAF G469A, DC50 at 50%: fitted conc. at Y=50.
The mark [6] stands for this setting: HCT-116, Class 2, BRAF G469A, percentage protein degraded at maximal compound effect relative to DMSO.
[7] abbreviates: BRAF D594G, DC50 at 50%: fitted conc. at Y=50.
Where [8] appears, read: HCT-116, BRAF D594G, percentage protein degraded at maximal compound effect relative to DMSO.
[9] abbreviates: A375 (BRAF V600E, Class 1), DC50 at 50% degradation.
Where [10] appears, read: A375 (BRAF V600E, Class 1), observed Dmax, % protein degraded relative to DMSO control.
The mark [11] stands for this setting: BRAF G466V (Class 3), HCT-116 BRAF−/− cells, DC50 at 50% degradation.
Where [12] appears, read: BRAF G466V (Class 3), HCT-116 BRAF−/− cells, observed Dmax relative to DMSO control.
Where [13] appears, read: BRAF G469A (Class 2), HCT-116 BRAF−/− cells, DC50 at 50% degradation.
The mark [14] stands for this setting: BRAF G469A (Class 2), HCT-116 BRAF−/− cells, observed Dmax relative to DMSO control.
The mark [15] stands for this setting: BRAF D594G (Class 3), HCT-116 BRAF−/− cells, DC50 at 50% degradation.
The mark [16] stands for this setting: BRAF D594G (Class 3), HCT-116 BRAF−/− cells, observed Dmax relative to DMSO control.

T2 sequence (P15056 whole entry G466V): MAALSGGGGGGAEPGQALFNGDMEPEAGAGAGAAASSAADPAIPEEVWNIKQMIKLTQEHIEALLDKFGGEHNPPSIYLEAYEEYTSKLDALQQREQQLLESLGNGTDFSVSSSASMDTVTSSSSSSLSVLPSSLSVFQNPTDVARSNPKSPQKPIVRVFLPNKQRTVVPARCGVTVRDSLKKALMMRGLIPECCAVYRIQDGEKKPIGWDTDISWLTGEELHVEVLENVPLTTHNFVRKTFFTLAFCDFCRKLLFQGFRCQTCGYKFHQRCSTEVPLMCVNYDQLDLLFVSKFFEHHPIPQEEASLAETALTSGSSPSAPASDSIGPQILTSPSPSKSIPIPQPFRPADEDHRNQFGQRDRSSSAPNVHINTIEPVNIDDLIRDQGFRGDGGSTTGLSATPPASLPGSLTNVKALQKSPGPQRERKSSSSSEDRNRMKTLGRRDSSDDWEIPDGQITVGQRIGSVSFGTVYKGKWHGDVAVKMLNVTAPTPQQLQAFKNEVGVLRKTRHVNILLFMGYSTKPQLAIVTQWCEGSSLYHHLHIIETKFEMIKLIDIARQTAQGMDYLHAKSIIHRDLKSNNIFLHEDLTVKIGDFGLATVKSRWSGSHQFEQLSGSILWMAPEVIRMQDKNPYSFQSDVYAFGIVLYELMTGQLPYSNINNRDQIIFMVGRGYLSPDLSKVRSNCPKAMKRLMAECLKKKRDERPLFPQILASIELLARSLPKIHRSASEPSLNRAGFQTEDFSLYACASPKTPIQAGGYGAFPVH
T4 sequence (P15056 whole entry D594G): as the sequence (P15056 whole entry G466V) above, with V466G, D594G counted along it
T1 sequence (P15056 whole entry V600E, the tested form may be a part): as the sequence (P15056 whole entry G466V) above, with V466G, V600E counted along it
T3 sequence (P15056 whole entry G469A): as the sequence (P15056 whole entry G466V) above, with V466G, G469A counted along it

For `CCCS(=O)(=O)Nc1cccc(-c2nc(C3CCC4(CC3)CN(C(=O)C3CCN(c5ccc6c(c5)C(=O)N(C5CCC(=O)NC5=O)C6=O)CC3)C4)sc2-c2ccnc(N)n2)c1F` (racemic) [Compound 244, Rac-N-{3-[5-(2-aminopyrimidin-4-yl)-2-[2-(1-{2-[(3R)-2,6-dioxopiperidin-3-yl]-1,3-dioxo-2,3-dihydro-1H-isoindol-5-yl}piperidine-4-carbonyl)-2-azaspiro[3.5]nonan-7-yl]-1,3-thiazol-4-yl]-2-fluorophenyl}propane-1-sulfonamide], the DC50 at BRAF V600E (setting [1]) is less than 0.01 µM; on BRAF G466V (setting [3]) it was 0.01 to 0.05 µM; on BRAF G469A (setting [5]), greater than 0.5 µM; on BRAF D594G (setting [7]) it was less than 0.01 µM. The Dmax is greater than 70% at BRAF V600E (setting [2]), 30 to 70% at BRAF G466V (setting [4]), less than 30% at BRAF G469A (setting [6]) and 30 to 70% on BRAF D594G (setting [8]).

For the compound `C[C@@H]1CN(c2ccc(-n3cc(-c4cc(Cl)cc(NS(=O)(=O)N5CC[C@@H](F)C5)c4F)c(-c4ccncc4)n3)cc2)CCN1CC1CCN(c2ccc([C@H]3CCC(=O)NC3=O)cc2)CC1` [Compound 317, (3R)—N-[5-chloro-3-(1-{4-[(3R)-4-[(1-{4-[(3R)-2,6-dioxopiperidin-3-yl]phenyl}piperidin-4-yl)methyl]-3-methylpiperazin-1-yl]phenyl}-3-(pyridin-4-yl)-1H-pyrazol-4-yl)-2-fluorophenyl]-3-fluoropyrrolidine-1-sulfonamide], the DC50 at BRAF V600E (setting [9]), on BRAF G466V (setting [11]), on BRAF G469A (setting [13]) and on BRAF D594G (setting [15]) was less than 0.01 µM each time. In addition, the Dmax at BRAF V600E (setting [10]) was greater than 70%; on BRAF G466V (setting [12]), greater than 70%; at BRAF G469A (setting [14]) it was greater than 70%; on BRAF D594G (setting [16]) it was 30 to 70%.

`C[C@@H]1CN(c2ccc(-n3cc(-c4cc(Cl)cc(NS(=O)(=O)N5CCCC5)c4F)c(-c4ccncc4)n3)nc2)CCN1CC1CCN(c2ccc([C@H]3CCC(=O)NC3=O)cn2)CC1` [Compound 325, N-[5-chloro-3-(1-{5-[(3R)-4-[(1-{5-[(3R)-2,6-dioxopiperidin-3-yl]pyridin-2-yl}piperidin-4-yl)methyl]-3-methylpiperazin-1-yl]pyridin-2-yl}-3-(pyridin-4-yl)-1H-pyrazol-4-yl)-2-fluorophenyl]pyrrolidine-1-sulfonamide]: the DC50 was less than 0.01 µM on BRAF V600E (setting [9]), less than 0.01 µM at BRAF G466V (setting [11]), 0.01 to 0.05 µM on BRAF G469A (setting [13]) and less than 0.01 µM at BRAF D594G (setting [15]). In addition, the Dmax on BRAF V600E (setting [10]), on BRAF G466V (setting [12]), at BRAF G469A (setting [14]) and at BRAF D594G (setting [16]) was greater than 70% in each case.

As for `C[C@@H]1CN(c2ccc(-n3cc(-c4cc(Cl)cc(NS(=O)(=O)N5CC[C@@H](F)C5)c4F)c(-c4ccncc4)n3)cc2)CCN1CC1CCN(c2ccc(N3CCC(=O)NC3=O)cc2)CC1` [Compound 315, (3R)—N-[5-chloro-3-(1-{4-[(3R)-4-({1-[4-(2,4-dioxo-1,3-diazinan-1-yl)phenyl]piperidin-4-yl}methyl)-3-methylpiperazin-1-yl]phenyl}-3-(pyridin-4-yl)-1H-pyrazol-4-yl)-2-fluorophenyl]-3-fluoropyrrolidine-1-sulfonamide], the DC50 at BRAF V600E (setting [9]) is less than 0.01 µM; at BRAF G466V (setting [11]), less than 0.01 µM; at BRAF G469A (setting [13]), 0.01 to 0.05 µM; on BRAF D594G (setting [15]), less than 0.01 µM. For the same compound, the Dmax is greater than 70% at BRAF V600E (setting [10]), greater than 70% on BRAF G466V (setting [12]), 30 to 70% at BRAF G469A (setting [14]) and 30 to 70% on BRAF D594G (setting [16]).

`CCCS(=O)(=O)Nc1cccc(-c2nc(C(C)(C)C)sc2-c2ccnc(N[C@H]3CC[C@@H](N4CCN(C(=O)C5CCN(c6ccc(C7CCC(=O)NC7=O)cn6)CC5)CC4)CC3)n2)c1F` (mixture of isomers) [Compound 138, N-{3-[2-tert-butyl-5-(2-{[(1s,4s)-4-[4-(1-{5-[(3RS)-2,6-dioxopiperidin-3-yl]pyridin-2-yl}piperidine-4-carbonyl)piperazin-1-yl]cyclohexyl]amino}pyrimidin-4-yl)-1,3-thiazol-4-yl]-2-fluorophenyl}propane-1-sulfonamide]: the half-maximal degradation concentration (DC50) at BRAF V600E (setting [1]) was less than 0.01 µM; at BRAF G466V (setting [3]), less than 0.01 µM; at BRAF G469A (setting [5]) it was less than 0.01 µM; on BRAF D594G (setting [7]), 0.01 to 0.05 µM. The Dmax was greater than 70% at BRAF V600E (setting [2]), 30 to 70% on BRAF G466V (setting [4]), 30 to 70% at BRAF G469A (setting [6]) and 30 to 70% on BRAF D594G (setting [8]).

On to `CCCS(=O)(=O)Nc1cccc(-c2cn(C3CCN(C(=O)C4(C)CCN(C(=O)C5CCN(c6ccc(C7CCC(=O)NC7=O)cn6)CC5)CC4)CC3)nc2-c2ccncc2)c1F` (racemic) [Compound 8, Rac-N-[3-(1-{1-[1-(1-{5-[(3R)-2,6-dioxopiperidin-3-yl]pyridin-2-yl}piperidine-4-carbonyl)-4-methylpiperidine-4-carbonyl]piperidin-4-yl}-3-(pyridin-4-yl)-1H-pyrazol-4-yl)-2-fluorophenyl]propane-1-sulfonamide], for which the half-maximal degradation concentration (DC50) on BRAF V600E (setting [1]) was 0.01 to 0.05 µM; at BRAF G466V (setting [3]), greater than 0.5 µM; on BRAF G469A (setting [5]), greater than 0.5 µM; on BRAF D594G (setting [7]) it was greater than 0.5 µM. Also, the greatest degradation seen (Dmax) on BRAF V600E (setting [2]) is greater than 70%; on BRAF G466V (setting [4]), 30 to 70%; at BRAF G469A (setting [6]), 30 to 70%; at BRAF D594G (setting [8]), 30 to 70%.
